Source: article PMC9963121, “Development of Combretastatin A-4 Analogues as Potential Anticancer Agents with Improved Aqueous Solubility” (Molecules, 2023)

Key:
[1] = Drug-plasma protein binding rate, equilibrium dialysis; format: in vitro ADME; conditions: rat, equilibrium dialysis vs phosphate buffer pH 7.4, 4 °C
Protocol: Compounds at 90 μM concentration were mixed with rat plasma, and the mixtures were subjected to equilibrium dialysis versus phosphate buffer (pH 7.4) at 4 °C for 48 h. The dialysis membrane of molecular weight cut off 1 kDa was used. Dialysis experiments were done in triplicate. On completion of the dialysis period, absorb a certain amount of buffer and plasma, respectively, and add methanol to treat the sample. Dialysis samples were analysed by HPLC. The plasma protein binding rate of the compound was calculated as follows: protein binding rate/% = (plasma drug concentration inside dialysis bag—dialysate drug concentration outside dialysis bag)/plasma drug concentration inside dialysis bag × 100%. […]
injection volume was 3 μL. The column temperature was set at 40℃.
1.7. The drug-plasma protein binding rate assessment
Compound 12a1 at 90 μM concentration were mixed with rats plasma. The mixtures were subjected to equilibrium dialysis versus phosphate buffer pH 7.4 buffer at 4℃ for 48 hour using equilibrium dialysis. The dialysis membrane of molecular weight cutoff 1 kDa was used. […] Dialysis samples were analyzed by HPLC, The plasma protein binding rate of the compound was calculated as follows: protein binding rate ∕ % = (plasma drug concentration inside dialysis bag − dialysate drug concentration outside dialysis bag) ∕ plasma drug concentration inside dialysis bag × […]

[2] = tested on: HCT-116 colorectal cancer cell; assay: MTT cell growth inhibition assay, HCT-116 colorectal cancer cells; format: cell-based, human; conditions: Homo sapiens, HCT-116; MTT; mean ± SD of three experiments
From the text: (§1) Initially, we designed and synthesised seven compounds—9a and 12a1–12a6—and evaluated the anticancer activity and aqueous solubility. We evaluated the cytotoxic effects of these stilbene nitrile analogues against a panel of four human cancer cell lines (HCT-116, BEL-7402, MCF-7 and AGS) and two human non-cancerous normal cell lines (L-02 and MCF-10A), using CA-4 as a control. The compounds were screened for aqueous solubility in 0.01 M PBS using a high throughput UV method. […] It is possible that the size of the nitrogen heterocycle had little effect on the activity of these compounds. […] The aqueous solubility of all the compounds 12a1–12a6 was higher than that of 9a, particularly that of 12a1 and 12a2 containing piperazine rings. […] Of the six compounds with improved aqueous solubility, 12a1 had the best activity.
(§2) All human cell lines were used in this study. AGS gastric cancer cell, BEL-7402 liver cancer cell, HCT-116 colorectal cancer cell, L-02 normal liver cell, MCF-7 breast cancer cell, and MCF-10A normal breast cell were initially purchased from American Type Culture Collection (ATCC, Manassas, VA, USA). RPMI-1640 media, DMEM and FBS, were provided by Gibco Company. The cells were maintained in DMEM or RPMI-1640, supplemented with 10% FBS, 100 IU/mL penicillin and […] streptomycin, and at 37 °C in a humidified atmosphere containing 5% CO2.
(§3) The experiment was carried out according to the method of reference.

[3] = Aqueous solubility in 0.01 M PBS, high throughput UV method; format: physicochemical; conditions: aqueous phosphate buffer, aqueous buffer; sodium phosphate buffer 0.01 M, pH 7.4, 22 ± 2 °C; mean ± SD
From the text: as §1
The aqueous solubility was determined as a previously reported procedure. Put simply, a certain amount of powdered compound was placed in a 2 mL centrifuge tube and mixed with an appropriate volume of aqueous phosphate buffer (10 mM, pH 7.4) to make the whole system supersaturated. The mixtures were sonicated (KQ5200DE numerical control ultrasonic cleaner, Kunshan Ultrasonic Instrument Co., Ltd., SuZhou, China) for 20 min. After sonication, the mixture was allowed to equilibrate at RT (22 ± 2 °C) for 1.5 h with vortex shaking (1200 rpm). Then centrifuged at 3000 rpm for 15 min (1-14k, sigma, Darmstadt, Germany), the supernatant was filtered with a 0.22 µM filter membrane. And then, take 150 µL of filtrate and add it to 96-well UV plate with triplicate. Draw 150 μL of blank solution was added into plate as blank control. The 96-well UV plate prepared above was read on a Synergy HTX Multifunctional Microplate Reader (BioTek, Vermont, USA) at 294 nm. The absorbance of the sample was corrected according to the UV response of the sample and blank solution, and the corrected UV response values were used for solubility calculations by bringing into the standard curve of the compound. […]
1.5. Solubility Assessment
The aqueous solubility was determined as previously reported using the high throughput solubility screens procedure published by Bruno Bard et al [9. 10]. Put simply, a certain amount of powdered compound was placed in a 2 ml centrifuge tube and mixed with an appropriate volume of aqueous phosphate buffer (0.01 M, pH 7.4) to make the whole system supersaturated. The mixtures were sonicated (KQ5200DE numerical control ultrasonic cleaner, Kunshan Ultrasonic Instrument Co., Ltd., China) for 20 min. After sonication, the mixture was allowed to equilibrate at room temperature (22 ± 2°C) for 1.5 h with vortex shaking (1200 rpm). Then the centrifuge tube was put into the centrifuge (1-14k, sigma, Germany), centrifuged with 3000 rpm for 15 minutes, 0.22 µM filter membrane filtration supernatant, then take 150 µl filtrate and add it to 96-well UV plate, with three well for each compound. Draw 150 μL blank solution were added into 96 well-plate as blank control. The 96-well UV […]
plate prepared above was read on a SynergyHTX Multifunctional microplate reader (BioTek, USA) at 338 nm (compounds 12a-12d and 15-20) or 370 nm (compounds 9a-d). The absorbance of the sample was corrected according to the UV response of the sample and blank solution, and the corrected UV responses value were used for solubility calculations by bring into the standard curve of the compound. […]

[4] = tested on: MCF-10A normal breast cell; assay: MTT cell growth inhibition assay, MCF-10A normal breast cells; format: cell-based; conditions: Homo sapiens, mean ± SD of three experiments, read-out: IC50 MCF-10A Normal Breast Epithelial Cells
From the text: as §1, §2, §3

MCF-7 breast cancer cell = assay: MTT cell growth inhibition assay, MCF-7 breast cancer cells; format: cell-based; conditions: Homo sapiens, MCF7, mean ± SD of three experiments
From the text: as §1, §2, §3

fraction unbound at 48 h, 90 μM [1]: 0.393 | IC50 [2]: 2440 ± 290 nM | solubility thermodynamic at 1.5 h [3]: 18.2 ± 0.619 mg/mL | IC50 (MCF-7 breast cancer cell): 16.1 ± 2.7 µM
SMILES: COc1cc(/C(C#N)=C/c2ccc(NC(=O)CN3CCN(C)CC3)cc2)cc(OC)c1OC [12a1]
IC50 [4]: 20.9 ± 0.78 µM
